Measurements reported in US20060154892A1, “Procedure to block the replication of reverse transcriptase dependent viruses by the use of inhibitors of deoxynucleotides synthesis” (priority 1993, published 2006).
Where two headings read alike, the source gives them in different places.

How the values were obtained:
HIV-1 IIIB [1] = test: expected p24 expression in HIV-1 IIIB infected PHA-stimulated PBL with hydroxyurea and/or nucleoside analogs (Example 10); format: cell-based
Method: PBL isolated from healthy donors are stimulated with PHA and IL-2 for 48 hours using standard protocols. At the same time, the cells are pre-treated with hydroxyurea alone or in combination with either ddI or fluorinated derivatives of chain-terminating nucleosides.

HIV-1 RT [2] = target: T1, HIV-1 RT (Human immunodeficiency virus type 1 group M subtype B, UniProt P04585); test: Km of HIV-1 RT for dNTP, 600-base globin mRNA template; format: biochemical; conditions: 600-base globin mRNA as template
HIV-1 [3] = system: HIV-1
Text: In the latter procedure, we measured p24 production during the course of an in vitro infection to assess the inhibition of HIV-1 replication in activated PBL.

HIV-1 [4] = conditions: for effect on HIV-1 replication at the lowest levels: in some cases, only when used individually, FIG. 3
Method: PBL from healthy donors were infected for 2 hour at 37° C. with HIV-1 [HTLV-IIIB] (m.o.i.=1) after 2 days stimulation with PHA and Interleukin-2 (IL-2). […] Every 3-4 days, supernatant was harvested for p24 analysis, cells were counted and fresh supernatant and drugs were added. Samples were analyzed for (a) p24 production in the supernatant, (b) count of viable cells, and (c) ratios between the values expressed in (a) and (b).
PBL were isolated and stimulated for 2 days with PHA and IL-2. […] The extent of HIV-1 infection was analyzed as described in Example 5. Samples were tested for (a) p24 production in the supernatant, (b) viable cell count.

PBL [5] = conditions: doses corresponding to plasma concentrations in treated AIDS patients; cited from earlier work
[6] = system: dNTP pools in PHA stimulated PBL; test: dNTP pools in HIV-1 infected PHA-stimulated PBL treated with hydroxyurea (enzyme assay); format: cell-based, human; conditions: 1 mM hydroxyurea
Method: PBLs were cultured in the presence or absence of phytohemagglutinin A (PHA) at 10 μg/ml for 48 hours. Intracellular dNTP were extracted with 60% methanol and were examined by an enzyme assay using synthetic oligonucleotides (P. A. Sherman and A. J. Fyfe, 1989 Anal. Biochem. 180:222). Data represent the mean value of three experiments. […] The cellular volume of PBL was measured using a Coulter counter analizer and found to be approximately 0.25 μl/10^6 cells for quiescent PBL and 0.38 μl/10^6 cells for stimulated PBL, respectively.
Cell aliquots were harvested 24, 48 and 72 hours after infection and analyzed for the rate of dNTP synthesis inhibition (Sherman and Fyfe, supra) measured as the percentage of dNTP levels compared to the control cells.

HIV-1 RT [7] = target: T1, HIV-1 RT; test: in vitro activity of recombinant HIV-1 RT (primer extension assay); format: biochemical; conditions: 200 mM
Method: We also assessed the in vitro activity of recombinant HIV-1 RT at dNTP concentrations that were equivalent to those found in quiescent and stimulated PBL. DNA was synthesized using a globin mRNA template and an oligo dT16 primer (a primer extension assay). The HIV-1 RT reaction mixture contained 50 mM Tris-HCl (pH 8.0), 6 mM MgCl2, 76 mM KCl, 0.5 mM DTT, 80 nM globin mRNA primed with oligo dT16 in 1:5 ratio, and dNTP at (a) the concentrations equivalent to quiescent cells and (b) the concentrations equivalent to stimulated cells as described in Table 1. Recombinant HIV-1 RT (obtained from American Biotechnologies) was used at 5 U/ml.

HIV-1 [HTLV-IIIB] = test: p24 production in activated PBL infected with HIV-1 [HTLV-IIIB], drugs added after infection; format: cell-based; conditions: for inhibition at 1000 µM: Human immunodeficiency virus 1, IIIB, PBMC
PBL [8] = test: count of viable cells in HIV-1 infected activated PBL culture; format: cell-based, human; conditions: for Viable cells: PBMC, 1 mM Hydroxyurea
HIV-1 strain Ba-L = test: p24 production in primary human macrophages infected with HIV-1 Ba-L; format: cell-based; conditions: for inhibition at 1000 µM: Human immunodeficiency virus 1, BAL, Macrophage
Method: Macrophages were obtained by cell adhesion after purification of PBL from healthy donors. After 14 days treatment with granulocyte-macrophage-colony-stimulating factor, cells were infected overnight with the HIV-1 strain Ba-L (Gartner et al., Science 233:215 (1986)). […] Supernatants were harvested ever 4-5 days for p24 analysis and fresh supernatant and drugs were added.
Percentages of HIV-1 inhibition were calculated based on p24 production compared to the untreated control. Drug treatment of macrophages was suspended after 14 days.

HIV-1 [9] = test: administration of hydroxyurea to HIV-1 seropositive volunteers, CD4+ T-cell count (Example 9); format: in vivo, human; conditions: 20-40 mg per kg per day, after one month of drug treatment
Method: One or more HIV-1 seropositive volunteers are first identified. Blood samples drawn from the volunteers are assayed for CD4^+T-cells using any suitable quantitation means. Such quantitation means include, but are not limited to, the flow cytometer. Over a period of from several weeks to months, the number of CD4^+T-cells is observed to decrease steadily as an indicator of disease progression.
The nucleoside analogs can be any of ddI, ddC or AZT, or combinations thereof.
When hydroxyurea is used in conjunction with a nucleoside analog, the dosage of the analog is determined according to convention in the medical and pharmaceutical arts.
After one month of drug treatment blood samples are again drawn and assayed for CD4^+T-cells.

HIV-1 IIIB [10] = conditions: for RT Activity: 1 mM hydroxyurea
[11] = system: primary human macrophages; conditions: for Viable cells: Macrophages
[12] = cited from earlier work
[13] = nucleoside analog 20 μM, day 12

For `Nc1ncnc2c1ncn2[C@@H]1O[C@H](CO)C[C@@H]1F` [2′-F-dd-ara-A], the “p24 Expression after Infection” value (HIV-1 IIIB [1]; nucleoside analog 20 μM, day 4) was “Low”, the “p24 Expression after Infection” value (HIV-1 IIIB [1]; nucleoside analog 20 μM, day 8) was “Medium” and the “p24 Expression after Infection” value (HIV-1 IIIB [1]; [13]) was “Medium”.

For `Nc1nc2c(ncn2[C@@H]2O[C@H](CO)C[C@@H]2F)c(=O)[nH]1` [2′-F-dd-ara-G], the “p24 Expression after Infection” value (HIV-1 IIIB [1]; nucleoside analog 20 μM, day 4) was “Low”, the “p24 Expression after Infection” value (HIV-1 IIIB [1]; nucleoside analog 20 μM, day 8) was “Medium” and the “p24 Expression after Infection” value (HIV-1 IIIB [1]; [13]) was “Medium”.

In the case of `O=c1[nH]cnc2c1ncn2[C@@H]1O[C@H](CO)C[C@@H]1F` [2′-F-dd-ara-I], the “p24 Expression after Infection” value (HIV-1 IIIB [1]; nucleoside analog 20 μM, day 4) is reported as “Low”, the “p24 Expression after Infection” value (HIV-1 IIIB [1]; nucleoside analog 20 μM, day 8) is reported as “Medium” and the “p24 Expression after Infection” value (HIV-1 IIIB [1]; [13]) is reported as “Medium”.

Work on `Nc1ncnc2c1ncn2[C@H]1C[C@H](O)[C@@H](COP(=O)(O)OP(=O)(O)OP(=O)(O)O)O1` [dATP] yielded a Km (HIV-1 RT [2]) of 2.6 µM.

For `Nc1ccn([C@H]2C[C@H](O)[C@@H](COP(=O)(O)OP(=O)(O)OP(=O)(O)O)O2)c(=O)n1` [dCTP], the Km (HIV-1 RT [2]) was 3.8 µM.

For `Nc1nc2c(ncn2[C@H]2C[C@H](O)[C@@H](COP(=O)(O)OP(=O)(O)OP(=O)(O)O)O2)c(=O)[nH]1` [dGTP], the Km (HIV-1 RT [2]) was 3.9 µM.

`Cc1cn([C@H]2C[C@H](O)[C@@H](COP(=O)(O)OP(=O)(O)OP(=O)(O)O)O2)c(=O)[nH]c1=O` [dTTP] showed a Km (HIV-1 RT [2]) of 4 µM.

For `O=c1[nH]cnc2c1ncn2[C@H]1CC[C@@H](CO)O1` [ddI, didanosine], the “p24 Expression after Infection” value (HIV-1 IIIB [1]; nucleoside analog 20 μM, day 4) was “Low”, the “p24 Expression after Infection” value (HIV-1 IIIB [1]; nucleoside analog 20 μM, day 8) was “Medium” and the “p24 Expression after Infection” value (HIV-1 IIIB [1]; [13]) was “Medium”. The p24 after infection (HIV-1 [3]; ddI 0.2 μM, day 4) was 4 ng/mL, the p24 after infection (HIV-1 [3]; ddI 0.2 μM, day 8) was 116 ng/mL and the p24 after infection (HIV-1 [3]; ddI 0.2 μM, day 12) was 197 ng/mL. It also gave a p24 after infection (HIV-1 [3]; ddI 1 μM, day 4) of 3 ng/mL, a p24 after infection (HIV-1 [3]; ddI 1 μM, day 8) of 90 ng/mL and a p24 after infection (HIV-1 [3]; ddI 1 μM, day 12) of 196 ng/mL. It also gave a p24 after infection (HIV-1 [3]; ddI 5 μM, day 4) of 1 ng/mL, a p24 after infection (HIV-1 [3]; ddI 5 μM, day 8) of 58 ng/mL and a p24 after infection (HIV-1 [3]; ddI 5 μM, day 12) of 125 ng/mL. The p24 after infection (HIV-1 [3]; ddI 20 μM, day 4) was 1 ng/mL, the p24 after infection (HIV-1 [3]; ddI 20 μM, day 8) was 25 ng/mL and the p24 after infection (HIV-1 [3]; ddI 20 μM, day 12) was 51 ng/mL. For the same molecule, the “effect on HIV-1 replication at the lowest levels” value (HIV-1 [4]) was “stimulated HIV-1 replication” and the cytotoxicity (PBL [5]) was “low”.

In the case of `NC(=O)NO` [hydroxyurea], the “dNTP pools in stimulated PBL” value [6] is reported as “substantially depleted”, the “direct inhibition of RT enzymatic activity” value (HIV-1 RT [7]) is reported as “did not directly inhibit RT enzymatic activity” and the inhibition at 1000 µM (HIV-1 [HTLV-IIIB]; 96 h) is reported as 100%. The inhibition at 1000 µM (HIV-1 [HTLV-IIIB]; 168 h) was 100%, the inhibition at 1000 µM (HIV-1 [HTLV-IIIB]; 240 h) was 100% and the inhibition at 1000 µM (HIV-1 [HTLV-IIIB]; 336 h) was 100%. For the same molecule, the HIV-1 replication (HIV-1 [HTLV-IIIB]; continuous treatment with 1 mM hydroxyurea, activated PBL) was “completely blocked HIV-1 replication”, the “antiviral effect, p24 normalized to number of viable cells” value (HIV-1 [HTLV-IIIB]; low concentrations, FIG. 1c) was “not mediated by cytotoxicity” and the “HIV-1 replication (p24 in supernatant)” value (HIV-1 [HTLV-IIIB]; used alone at low concentrations, FIG. 1a) was “inhibited in a dose-dependent manner”. The cytotoxic effects (PBL [8]; 0.1 mM hydroxyurea, continuous exposure, FIG. 1b) was “some cytotoxic effects”, the toxicity (PBL [8]; 1 mM hydroxyurea, activated PBL) was “toxic effects at these concentrations were observed early” and the Viable cells (PBL [8]; day 4) was 500 thousands/ml. It also gave a Viable cells (PBL [8]; day 7) of 185 thousands/ml, a Viable cells (PBL [8]; day 10) of 87 thousands/ml and a Viable cells (PBL [8]; day 14) of 36 thousands/ml. For the same molecule, the “cytostatic and cytotoxic effects” value (PBL [8]; decreased drug concentration, FIG. 1b) was “virtually disappeared”, the inhibition at 1000 µM (HIV-1 strain Ba-L; 96 h) was 100% and the inhibition at 1000 µM (HIV-1 strain Ba-L; 168 h) was 100%. The inhibition at 1000 µM (HIV-1 strain Ba-L; 240 h) was 100%, the inhibition at 1000 µM (HIV-1 strain Ba-L; 336 h) was 100% and the HIV-1 replication (HIV-1 strain Ba-L; continuous treatment with 1 mM hydroxyurea, macrophages) was “completely blocked HIV-1 replication”. For the same molecule, the “block of HIV-1 replication” value (HIV-1 strain Ba-L; hydroxyurea as low as 0.05 mM, macrophages) was > 99.9%, the “HIV-1 replication after discontinuing the drug treatment” value (HIV-1 strain Ba-L; infected macrophages, several weeks after discontinuing, in some experiments) was “absence of HIV-1 replication” and the “dose-dependent inhibition of HIV-1 production in macrophages compared with PBL” value (HIV-1 strain Ba-L; same donor for PBL and macrophages) was “consistently more potent than with primary PBL”. For the same molecule, the “p24 Expression after Infection” value (HIV-1 IIIB [1]; HU 50 μM, day 4) was “Low”, the “p24 Expression after Infection” value (HIV-1 IIIB [1]; HU 50 μM, day 8) was “Medium” and the “p24 Expression after Infection” value (HIV-1 IIIB [1]; HU 50 μM, day 12) was “High”. The “CD4+ T-cell population” value (HIV-1 [9]) was “stabilized or increased”, the “RT Activity” value (HIV-1 IIIB [10]; day 2) was 0.892 cpm/ml × 1000 and the “RT Activity” value (HIV-1 IIIB [10]; day 5) was 0.589 cpm/ml × 1000. For the same molecule, the “RT Activity” value (HIV-1 IIIB [10]; day 9) was 0.434 cpm/ml × 1000, the “viral expression of RT” value (HIV-1 IIIB [10]; pre-infection treatment with 1 mM hydroxyurea) was “significantly reduced” and the p24 after infection (HIV-1 [3]; HU 10 μM, day 4) was 4 ng/mL. The p24 after infection (HIV-1 [3]; HU 10 μM, day 8) was 100 ng/mL, the p24 after infection (HIV-1 [3]; HU 10 μM, day 12) was 204 ng/mL and the p24 after infection (HIV-1 [3]; HU 50 μM, day 4) was 3 ng/mL. It also gave a p24 after infection (HIV-1 [3]; HU 50 μM, day 8) of 113 ng/mL, a p24 after infection (HIV-1 [3]; HU 50 μM, day 12) of 148 ng/mL and a p24 after infection (HIV-1 [3]; HU 100 μM, day 4) of 2 ng/mL. For the same molecule, the p24 after infection (HIV-1 [3]; HU 100 μM, day 8) was 111 ng/mL, the p24 after infection (HIV-1 [3]; HU 100 μM, day 12) was 116 ng/mL and the cytotoxic effects [11] was “no cytotoxic effects were observed”. It also gave a Viable cells ([11]; 1 mM Hydroxyurea, day 4) of 300 thousands/cm^2, a Viable cells ([11]; 1 mM Hydroxyurea, day 7) of 280 thousands/cm^2 and a Viable cells ([11]; 1 mM Hydroxyurea, day 10) of 270 thousands/cm^2. For the same molecule, the Viable cells ([11]; 1 mM Hydroxyurea, day 14) was 270 thousands/cm^2, the Viable cells ([11]; day 21, drug suspension after 14 days) was 260 thousands/cm^2 and the Viable cells ([11]; day 28, drug suspension after 14 days) was 240 thousands/cm^2. For the same molecule, the Viable cells ([11]; day 35, drug suspension after 14 days) was 190 thousands/cm^2, the “effect on HIV-1 replication at the lowest levels” value (HIV-1 [4]) was “stimulated HIV-1 replication” and the HIV-1 replication (HIV-1 [4]; patient PBL, FIG. 3a) was “inhibited HIV-1 replication in a dose-dependent manner”. For the same molecule, the “blood concentration during standard clinical protocols” value ([12]; humans) was ~1000 µM and the absorption ([12]; oral ingestion) was “readily absorbed after oral ingestion”.
